# Where two headings read alike, the source gives them in different places.
# Key:
# Leucémie P388 = format: in vivo, souris DBA/2; details: for survivants 30 jours / Δ P J1-J5 / T/C / Doses actives (T/C ≥ 125 %): P388; for T/C: survivants inclus; for activité antitumorale sur la leucémie P388: summary
# From the text: (§1) Afin de tester l'activité antitumorale des composés décrits plus haut, on a utilisé les leucémies murines P388 et L1210, ainsi que le mélanome murin B16. La leucémie P388 est considère comme très sensible et permet une première sélection. D'autre part, une substance ayant une grande activité sur la leucémie L1210 a une grande chance d'être active en clinique humaine (J.M. Venditti; Relevance of transplantable animal tumor systems to the Selection of new agents for clinical trial in pharmacological basis of cancer chemotherapy. The University of Texas ed. Williams and Wilkins, publ. 1975, Baltimore USA).
# (§2) Cette étude a été réalisée sur 1, 2 ou 3 tumeurs murines expérimentales selon le schéma suivant :
# (§3) Les produits en solution dans l'eau ou en suspension dans du Klucel sont administrés par voie intrapéritonéale 24 heures après la greffe des cellules tumorales (10 animaux par série), soit en injection unique (J1), soit pendant 9 jours consécutifs (Ji-9). Les morts sont relevés chaque jour à la même heure. La comparaison du temps médian de survie des souris témoins (C) et des souris traitées (T) permet d'apprécier l'activité antitumorale du produit. On adopte comme critère d'activité minimale la valeur de T/C supérieure ou égale à 125 % conformément aux critères établis par GERAN et par l'O.M.S. (Réf. GERAN R.I., GREENBERG N.H., MACDONALD M.M., SCHUMACHER A.M. and ABBOTT B.J. Protocols for screening chemical agents and natural products against animal tumors and other biological systems. Cancer Chemother. Rep. Part 3, 3, 1-103 (1972)).
# (§4) Lorsque le composé est actif sur plusieurs tumeurs, son administration par d'autres voies que la voie intrapéritonéale (i.p.) est envisagée : orale (p.o) et intraveineuse (i.v). Les résultats des essais effectués à l'aide du composé 63 sont rassemblés dans le tableau IV ci-après.
# Les résultats des essais effectués à l'aide des composés de l'invention n° 57 et 59 sont rassemblés dans le tableau IV Bis ci-après.
# (§5) Dans les tableaux IV et IV Bis, P représentent la variation de poids entre J1 et J5 des animaux traités; lorsque P est supérieure à environ 4 g, cela signifie que la dose à laquelle le composé a été testé est toxique.
# [1] = Determination of toxicity (DLo), single intraperitoneal dose; format: in vivo; details: voie intrapéritonéale, dose unique, souris Swiss, suivies pendant un mois
# From the text: Ils sont tous administrés, par voie intrapéritonéale (ip), à des souris Swiss de 22 ± 2 g, à doses uniques exprimées en mg/kg de poids corporel. Les animaux sont suivis pendant un mois. La mortalité et les signes de toxicité sont relevés. On détermine ainsi la DLoqui sera la dose maximale utilisée pour la détermination de l'activité antitumorale.
# [2] = Solubility in water (statement); format: physicochemical
# Leucémie L1210 = format: in vivo, souris DBA/2; details: for survivants 30 jours / Δ P J1-J5 / T/C / Doses actives (T/C ≥ 125 %): L1210, greffe ip(10^5cel.); for T/C: survivants inclus
# From the text: as §1
# La leucémie L1210 de la souris est en effet couramment utilisée pour l'évaluation de tous les composés antitumoraux actuellement mis en oeuvre en thérapeutique humaine, ainsi qu'il est décrit, par exemple par C.C. Zubrod dans Proc. Nat. Acad. Sci. USA 69, 1972, p. 1042-1047. Le système tumoral ainsi constitué expérimentalement permet une évaluation quantitative très précise de l'activité du composé testé, et, par conséquent aussi, une comparaison objective entre les activités respectives de différents composés, par exemple selon les méthodes décrites par R. E. Skipper, F. M. Schabel, Jr. et W. S. Wilcox dans Cancer Chemother. Rep., 35, 1964, p. 1-111 et 45, 1965, p.5-28.
# as §2, §3, §4, §5
# Mélanome B16 = format: in vivo, souris BDF1
# From the text: as §1, §2, §3, §4, §5
# [3] = greffe ip(10^6cel.), ip J1-9, dose optimale 0,4 mg/kg/inj.
# [4] = greffe ip(10^6cel.), ip J1, dose 1,25 mg/kg/inj.
# [5] = greffe ip(10^6cel.), ip J1, dose optimale 3 mg/kg/inj.
# [6] = greffe ip(10^6cel.), iv J1, dose 1,25 mg/kg/inj. (2 doses testées)
# [7] = greffe ip(10^6cel.), po J1, dose optimale 30 mg/kg/inj.
# [8] = greffe iv(10^5cel.), iv J1, dose 1,25 mg/kg/inj. (1 seule dose testée)
# [9] = ip J1-9, dose optimale 0,4 mg/kg/inj.
# [10] = ip J1, dose optimale 2 mg/kg/inj.
# [11] = B16, greffe ip(susp. au 1/10), ip J1-9, dose optimale 0,2 mg/kg/inj.
smiles,measurement,setting,value
CN(C)CCCNc1ncnc2c1C(=O)C(N1CC1)=C(N1CC1)C2=O [composé 63],survivants 30 jours,Leucémie P388; [3],0
same,Δ P J1-J5,Leucémie P388; [3],"-2,1 g"
same,T/C,Leucémie P388; [3],222%
same,survivants 30 jours,Leucémie P388; [4],1
same,Δ P J1-J5,Leucémie P388; [4],"-1,7 g"
same,T/C,Leucémie P388; [4],174%
same,survivants 30 jours,Leucémie P388; [5],0
same,Δ P J1-J5,Leucémie P388; [5],"-2,0 g"
same,T/C,Leucémie P388; [5],188%
same,survivants 30 jours,Leucémie P388; [6],0
same,Δ P J1-J5,Leucémie P388; [6],"-0,7 g"
same,T/C,Leucémie P388; [6],136%
same,survivants 30 jours,Leucémie P388; [7],0
same,Δ P J1-J5,Leucémie P388; [7],"-4,7 g"
same,T/C,Leucémie P388; [7],140%
same,Doses actives (T/C ≥ 125 %),"Leucémie P388; greffe ip(10^6cel.), traitement ip J1","0,1-3 mg/kg/inj."
same,Doses actives (T/C ≥ 125 %),"Leucémie P388; greffe ip(10^6cel.), traitement ip J1-9","0,017-0,8 mg/kg/inj."
same,Doses actives (T/C ≥ 125 %),"Leucémie P388; greffe ip(10^6cel.), traitement po J1",20-30 mg/kg/inj.
same,survivants 30 jours,Leucémie P388; [8],0
same,Δ P J1-J5,Leucémie P388; [8],"-0,1 g"
same,T/C,Leucémie P388; [8],147%
same,activité antitumorale sur la leucémie P388,Leucémie P388; par voie orale et par voie intraveineuse,reste actif
same,activité antitumorale sur la leucémie P388,Leucémie P388; voie intrapéritonéale,excellente activité antitumorale
same,DLo,[1],~3 mg/kg
same,solubilité dans l'eau,[2],hydrosoluble
same,survivants 30 jours,Leucémie L1210; [9],1
same,Δ P J1-J5,Leucémie L1210; [9],"-1,6 g"
same,T/C,Leucémie L1210; [9],174%
same,survivants 30 jours,Leucémie L1210; [10],1
same,Δ P J1-J5,Leucémie L1210; [10],"-2,8 g"
same,T/C,Leucémie L1210; [10],160%
same,Doses actives (T/C ≥ 125 %),Leucémie L1210; traitement ip J1,"0,25-2 mg/kg/inj."
same,Doses actives (T/C ≥ 125 %),Leucémie L1210; traitement ip J1-9,"0,03-0,8 mg/kg/inj."
same,activité sur la leucémie L1210,Leucémie L1210; summary,très efficace
same,survivants 60 jours,Mélanome B16; [11],2
same,Δ P J1-J5,Mélanome B16; [11],0 g
same,T/C,"Mélanome B16; B16, greffe ip(susp. au 1/10), ip J1-9, dose optimale 0,2 mg/kg/inj., survivants inclus",192%
same,Doses actives (T/C ≥ 125 %),"Mélanome B16; B16, greffe ip(susp. au 1/10), traitement ip J1-9","0,05-0,8 mg/kg/inj."
same,activité sur le mélanome B16,Mélanome B16; summary,très efficace
